33 compounds from patent US7276527B2, “5-pyridyl-1,3-azole compounds, process for producing the same and use thereof” (Takeda Pharmaceutical Company Limited, priority 1999, dated 2007) can be followed below.

What is called melting point is the temperature, or range, at which the solid turns liquid.

Turning to `CC(=O)Nc1nc(-c2cc(C)cc(C)c2)c(-c2ccnc(NCc3ccccc3)c2)s1` [Example Compound 10, N-[5-(2-benzylamino-4-pyridyl)-4-(3,5-dimethylphenyl)-1,3-thiazol-2-yl]acetamide], the melting point was 217 to 219 °C.
In the case of `CNc1nc(-c2ccc(OC)cc2)c(-c2ccnc(NC(=O)c3ccccc3)c2)s1` [Example Compound 11, N-[4-[4-(4-methoxyphenyl)-2-methylamino-1,3-thiazol-5-yl]-2-pyridyl]benzamide], the melting point was 237 to 241 °C.
`Cc1cccc(-c2nc(N)sc2-c2ccnc(NC(=O)c3ccccc3)c2)c1` [Example Compound 12, N-[4-[2-amino-4-(3-methylphenyl)-1,3-thiazol-5-yl]-2-pyridyl]benzamide] gave a melting point of 216 to 217 °C.
Regarding `COc1ccc(-c2nc(C)sc2-c2ccnc(NC(=O)Cc3ccccc3)c2)cc1` [Example Compound 15-1, N-[4-[4-(4-methoxyphenyl)-2-methyl-1,3-thiazol-5-yl]-2-pyridyl]phenylacetamide], the melting point lay in the range of 118 to 120 °C.
For the compound `CCCCc1nc(-c2cccc(C)c2)c(-c2ccnc(NC(=O)Cc3ccccc3)c2)s1` [Example Compound 15-4, N-[4-[2-butyl-4-(3-methylphenyl)-1,3-thiazol-5-yl]-2-pyridyl]phenylacetamide], the melting point was in the range of 92 to 93 °C.
Compound `Cc1cccc(-c2nc(-c3ccccc3Cl)sc2-c2ccnc(NC(=O)Cc3ccccc3)c2)c1` [Example Compound 15-5, N-(4-[2-(2-chlorophenyl)-4-(3-methylphenyl)-1,3-thiazol-5-yl]-2-pyridyl]phenylacetamide] showed a melting point of 141 to 142 °C.
`CSc1ccc(-c2nc(-c3cccc(C)c3)c(-c3ccnc(NC(=O)Cc4ccccc4)c3)s2)cc1` [Example Compound 15-6, N-[4-[4-(3-methylphenyl)-2-(4-methylthiophenyl)-1,3-thiazol-5-yl]-2-pyridyl]phenylacetamide] returned a melting point of 205 to 206 °C.
The compound `CCc1nc(-c2cccc(C)c2)c(-c2ccnc(NC(=O)CCc3ccc(OC)cc3)c2)s1` [Example Compound 16-3, N-[4-[2-ethyl-4-(3-methylphenyl)-1,3-thiazol-5-yl]-2-pyridyl]-3-(4-methoxyphenyl)propionamide] came in with a melting point of 137 to 138 °C.
For the compound `CCc1nc(-c2cccc(C)c2)c(-c2ccnc(NC(=O)CCc3ccc(F)cc3)c2)s1` [Example Compound 16-4, N-[4-[2-ethyl-4-(3-methylphenyl)-1,3-thiazol-5-yl]-2-pyridyl]-3-(4-fluorophenyl)propionamide], the melting point lay within 116 to 117 °C.
As for `CCc1nc(-c2cccc(C)c2)c(-c2ccnc(NC(=O)CCCc3ccccc3)c2)s1` [Example Compound 16-5, N-[4-[2-ethyl-4-(3-methylphenyl)-1,3-thiazol-5-yl]-2-pyridyl]-4-phenylbutyramide], the figure is 92 to 93 °C; as for `CCc1nc(-c2cccc(C)c2)c(-c2ccnc(NC(=O)CCCCc3ccccc3)c2)s1` [Example Compound 16-6, N-[4-[2-ethyl-4-(3-methylphenyl)-1,3-thiazol-5-yl]-2-pyridyl]-5-phenylvaleramide], 86 to 87 °C; as for `CCCc1nc(-c2cccc(C)c2)c(-c2ccnc(NC(=O)CCc3ccccc3)c2)s1` [Example Compound 16-8, N-[4-[4-(3-methylphenyl)-2-propyl-1,3-thiazol-5-yl]-2-pyridyl]-3-phenylpropionamide], 103 to 104 °C.
The compound `CCCCc1nc(-c2cccc(C)c2)c(-c2ccnc(NC(=O)CCc3ccccc3)c2)s1` [Example Compound 16-10, N-[4-[2-butyl-4-(3-methylphenyl)-1,3-thiazol-5-yl]-2-pyridyl]-3-phenylpropionamide] registered a melting point of 77 to 78 °C.
Turning to `Cc1cccc(-c2nc(-c3ccc(F)cc3)sc2-c2ccnc(NC(=O)c3ccccc3)c2)c1` [Example Compound 16-11, N-[4-[2-(4-fluorophenyl)-4-(3-methylphenyl)-1,3-thiazol-5-yl]-2-pyridyl]benzamide], the melting point is 126 to 128 °C.
Take `Cc1cccc(-c2nc(-c3ccc(F)cc3)sc2-c2ccnc(NC(=O)CCc3ccccc3)c2)c1` [Example Compound 16-12, N-[4-[2-(4-fluorophenyl)-4-(3-methylphenyl)-1,3-thiazol-5-yl]-2-pyridyl]-3-phenylpropionamide]: the melting point is 169 to 171 °C.
`Cc1cccc(-c2nc(-c3ccccc3Cl)sc2-c2ccnc(NC(=O)c3ccccc3)c2)c1` [Example Compound 16-13, N-(4-[2-(2-chlorophenyl)-4-(3-methylphenyl)-1,3-thiazol-5-yl]-2-pyridyl]benzamide] yielded a melting point of 138 to 140 °C.
`Cc1cccc(-c2nc(-c3ccccc3Cl)sc2-c2ccnc(NC(=O)CCc3ccccc3)c2)c1` [Example Compound 16-14, N-[4-[2-(2-chlorophenyl)-4-(3-methylphenyl)-1,3-thiazol-5-yl]-2-pyridyl]-3-phenylpropionamide] had a melting point of 156 to 158 °C.
In the case of `CSc1ccc(-c2nc(-c3cccc(C)c3)c(-c3ccnc(NC(=O)c4ccccc4)c3)s2)cc1` [Example Compound 16-15, N-[4-[4-(3-methylphenyl)-2-(4-methylthiophenyl)-1,3-thiazol-5-yl]-2-pyridyl]benzamide], the melting point lay within 180 to 182 °C.
`CSc1ccc(-c2nc(-c3cccc(C)c3)c(-c3ccnc(NC(=O)CCc4ccccc4)c3)s2)cc1` [Example Compound 16-16, N-[4-[4-(3-methylphenyl)-2-(4-methylthiophenyl)-1,3-thiazol-5-yl]-2-pyridyl]-3-phenylpropionamide] registered a melting point of 174 to 175 °C.
`CSc1ccc(-c2nc(-c3cccc(C)c3)c(-c3ccnc(NC(=O)c4cccs4)c3)s2)cc1` [Example Compound 16-17, N-[4-[4-(3-methylphenyl)-2-(4-methylthiophenyl)-1,3-thiazol-5-yl]-2-pyridyl]-2-thiophenecarboxamide]: the melting point was in the range of 145 to 147 °C.
With `CSc1ccc(-c2nc(-c3cccc(C)c3)c(-c3ccnc(NC(=O)c4ccc5ccccc5c4)c3)s2)cc1` [Example Compound 16-18, N-[4-[4-(3-methylphenyl)-2-(4-methylthiophenyl)-1,3-thiazol-5-yl]-2-pyridyl]-2-naphthamide], the melting point was in the range of 184 to 186 °C.
The compound `COc1ccc(-c2nc(C)sc2-c2ccnc(NCc3ccccc3)c2)cc1` [Example Compound 19-1, N-benzyl-N-[4-[4-(4-methoxyphenyl)-2-methyl-1,3-thiazol-5-yl]-2-pyridyl]amine] registered a melting point of 132 to 133 °C.
For `Cc1cccc(-c2nc(-c3ccc(F)cc3)sc2-c2ccnc(NCc3ccccc3)c2)c1` [Example Compound 19-11, N-benzyl-N-[4-[2-(4-fluorophenyl)-4-(3-methylphenyl)-1,3-thiazol-5-yl]-2-pyridyl]amine] the value was 143 to 146 °C.
`Cc1cccc(-c2nc(-c3ccc(F)cc3)sc2-c2ccnc(NCCc3ccccc3)c2)c1` [Example Compound 19-12, N-[4-[2-(4-fluorophenyl)-4-(3-methylphenyl)-1,3-thiazol-5-yl]-2-pyridyl]-N-(2-phenylethyl)amine] registered a melting point of 97 to 98 °C.
In the case of `Cc1cccc(-c2nc(-c3ccc(F)cc3)sc2-c2ccnc(NCCCc3ccccc3)c2)c1` [Example Compound 19-13, N-[4-[2-(4-fluorophenyl)-4-(3-methylphenyl)-1,3-thiazol-5-yl]-2-pyridyl]-N-(3-phenylpropyl)amine], the melting point lay within 110 to 112 °C.
For `Cc1cccc(-c2nc(-c3ccccc3Cl)sc2-c2ccnc(NCc3ccccc3)c2)c1` [Example Compound 19-14, N-benzyl-N-[4-[2-(2-chlorophenyl)-4-(3-methylphenyl)-1,3-thiazol-5-yl]-2-pyridyl]amine] the value was 84 to 86 °C; for `Cc1cccc(-c2nc(-c3ccccc3Cl)sc2-c2ccnc(NCCc3ccccc3)c2)c1` [Example Compound 19-15, N-[4-[2-(2-chlorophenyl)-4-(3-methylphenyl)-1,3-thiazol-5-yl]-2-pyridyl]-N-(2-phenylethyl)amine], 113 to 114 °C.
In the case of `Cc1cccc(-c2nc(-c3ccccc3Cl)sc2-c2ccnc(NCCCc3ccccc3)c2)c1` [Example Compound 19-16, N-[4-[2-(2-chlorophenyl)-4-(3-methylphenyl)-1,3-thiazol-5-yl]-2-pyridyl]-N-(3-phenylpropyl)amine], the melting point is 101 to 102 °C.
`CSc1ccc(-c2nc(-c3cccc(C)c3)c(-c3ccnc(NCc4ccccc4)c3)s2)cc1` [Example Compound 19-17, N-benzyl-N-[4-[4-(3-methylphenyl)-2-(4-methylthiophenyl)-1,3-thiazol-5-yl]-2-pyridyl]amine] showed a melting point of 134 to 136 °C.
On to `CSc1ccc(-c2nc(-c3cccc(C)c3)c(-c3ccnc(NCCc4ccccc4)c3)s2)cc1` [Example Compound 19-18, N-[4-[4-(3-methylphenyl)-2-(4-methylthiophenyl)-1,3-thiazol-5-yl]-2-pyridyl]-N-(2-phenylethyl)amine], for which the melting point was in the range of 137 to 139 °C.
Compound `CSc1ccc(-c2nc(-c3cccc(C)c3)c(-c3ccnc(NCCCc4ccccc4)c3)s2)cc1` [Example Compound 19-19, N-[4-[4-(3-methylphenyl)-2-(4-methylthiophenyl)-1,3-thiazol-5-yl]-2-pyridyl]-N-(3-phenylpropyl)amine] returned a melting point of 106 to 107 °C.
For `CSc1ccc(-c2nc(-c3cccc(C)c3)c(-c3ccnc(NCc4ccc5ccccc5c4)c3)s2)cc1` [Example Compound 19-20, N-[4-[4-(3-methylphenyl)-2-(4-methylthiophenyl)-1,3-thiazol-5-yl]-2-pyridyl]-N-(2-naphthylmethyl)amine] the value was 144 to 145 °C.
Compound `Cc1cccc(-c2nc(-c3ccc(S(C)(=O)=O)cc3)sc2-c2ccnc(NC(=O)CCc3ccccc3)c2)c1` [Example Compound 21-2, N-[4-[4-(3-methylphenyl)-2-(4-methylsulfonylphenyl)-1,3-thiazol-5-yl]-2-pyridyl]-3-phenylpropionamide] had a melting point of 236 to 237 °C.
